Test results as given in the NIST ThermoML archive (doi:10.1016/j.jct.2010.04.026).
“And” between values parts separate entries of the source, which are not always exact repeats. Equal values may be shown once.

Settings: Crystal; for mass density: 295.1 K, 101.33 kPa, pellet size and mass; for vapor or sublimation pressure: Calculated from knudsen effusion weight loss

Nc1ccc2[nH]ncc2c1 [5-aminoindazole]
Settings | mass density [kg/m3] | vapor or sublimation pressure
– | 1400 | –
358.12 K | – | 8.43e-05 kPa and 8.3e-05 kPa
360.18 K | – | 0.000101 kPa and 0.0001064 kPa and 0.000103 kPa
362.16 K | – | 0.0001305 kPa and 0.0001265 kPa and 0.0001259 kPa
364.11 K | – | 0.0001563 kPa and 0.0001589 kPa and 0.0001556 kPa
366.17 K | – | 0.0001991 kPa and 0.0001966 kPa and 0.0001879 kPa
368.17 K | – | 0.0002397 kPa and 0.0002332 kPa and 0.0002247 kPa
370.13 K | – | 0.0002948 kPa and 0.0002986 kPa
372.18 K | – | 0.0003483 kPa and 0.0003696 kPa and 0.0003499 kPa
374.15 K | – | 0.0004435 kPa and 0.0004334 kPa and 0.0004198 kPa
376.13 K | – | 0.0005419 kPa and 0.000534 kPa and 0.0005297 kPa
378.17 K | – | 0.0006618 kPa and 0.000668 kPa and 0.0006232 kPa
380.16 K | – | 0.0007639 kPa and 0.0007696 kPa and 0.0007519 kPa

Nc1ccc2cn[nH]c2c1 [6-aminoindazole]
Settings | mass density [kg/m3] | vapor or sublimation pressure
– | 1450 | –
366.14 K | – | 0.0001031 kPa and 0.0001023 kPa and 0.0001025 kPa
368.17 K | – | 0.0001275 kPa and 0.0001257 kPa and 0.0001221 kPa
370.18 K | – | 0.0001528 kPa and 0.0001513 kPa and 0.0001468 kPa
372.14 K | – | 0.0001919 kPa and 0.0001878 kPa and 0.0001923 kPa
374.16 K | – | 0.0002356 kPa and 0.000234 kPa and 0.0002228 kPa
376.17 K | – | 0.0002875 kPa and 0.0002739 kPa
378.15 K | – | 0.0003523 kPa and 0.0003592 kPa and 0.0003463 kPa
380.16 K | – | 0.0004332 kPa and 0.000428 kPa and 0.0004138 kPa
382.17 K | – | 0.0005244 kPa and 0.0005044 kPa and 0.0005114 kPa
384.15 K | – | 0.0006281 kPa and 0.0006132 kPa and 0.0006304 kPa
386.16 K | – | 0.0007813 kPa and 0.0007708 kPa and 0.0007396 kPa
388.17 K | – | 0.0009109 kPa and 0.0008984 kPa and 0.0008878 kPa
